Tests used:
[1] = target: T1, dopamine D2 (dopamine autoreceptor) (Rattus norvegicus, UniProt P61169); test: Affinity for the dopamine autoreceptor: 3H-quinpirole (Quin.) binding, homogenized rat striatal brain tissue
T1 construct: homogenized rat striatal brain tissue; from tissue; host or cells: rat striatal brain tissue, homogenized
Protocol: Affinity for the dopamine autoreceptor was established by a modification of the standard experimental test procedure of Seamen and Schaus, European Journal of Pharmacology 203, 105-109, 1991, wherein homogenized rat striatal brain tissue is incubated with ^3 H-quinpirole (Quin.) and various concentrations of test compound, filtered and washed and counted in a Betaplate scintillation counter.

dopamine D-2 receptor = target: T2, dopamine D-2 receptor (Rattus norvegicus, UniProt P61169); test: High affinity for the dopamine D-2 receptor: 3H-spiroperidol (Spiper.) binding, homogenized limbic brain tissue; conditions: read-out: IC50 (nM) D2 Spiper
T2 construct: homogenized limbic brain tissue; from tissue; host or cells: limbic brain tissue, homogenized
T2 sequence (P61169 whole entry): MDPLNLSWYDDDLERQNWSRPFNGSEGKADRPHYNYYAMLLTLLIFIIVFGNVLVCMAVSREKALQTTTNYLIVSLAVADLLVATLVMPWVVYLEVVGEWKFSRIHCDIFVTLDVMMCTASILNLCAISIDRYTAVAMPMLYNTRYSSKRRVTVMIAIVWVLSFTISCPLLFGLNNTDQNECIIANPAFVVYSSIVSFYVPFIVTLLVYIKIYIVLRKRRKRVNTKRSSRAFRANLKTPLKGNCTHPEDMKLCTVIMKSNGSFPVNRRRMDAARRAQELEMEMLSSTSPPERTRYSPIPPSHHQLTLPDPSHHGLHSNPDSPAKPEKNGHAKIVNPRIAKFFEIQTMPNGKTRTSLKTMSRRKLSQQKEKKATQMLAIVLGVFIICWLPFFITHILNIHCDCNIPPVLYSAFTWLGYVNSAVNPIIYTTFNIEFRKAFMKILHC
Protocol: High affinity for the dopamine D-2 receptor was established by the standard experimental test procedure of Fields, et al., Brain Res., 136, 578 (1977) and Yamamura et al., eds., Neurotranrutter Receptor Binding, Raven Press, N.Y. (1978) wherein homogenized limbic brain tissue is incubated with ^3 H-spiroperidol (Spiper.) and various concentrations of test compound, filtered and washed and shaken with Hydrofluor scintillation cocktail (National Diagnostics) and counted in a Packard 460 CD scintillation counter.

T1 sequence (P61169 whole entry): as above

Row | IC50 [1] [nM] | IC50 (dopamine D-2 receptor) [nM] | Structure (SMILES)
1 | 20.8 | 2190 | O=c1[nH]c2cccc(OCCNCc3ccccc3)c2[nH]c1=O [Example 1, 5-(2-Benzylamino-ethoxy)-1,4-dihydro-quinoxaline-2,3-dione]
2 | 64.6 |  | O=c1[nH]c2cccc(OCCNCc3ccc(Cl)cc3)c2[nH]c1=O [Example 2, 5-[2-(4-Chloro-benzylamino)-ethoxy]-1,4-dihydro-quinoxaline-2,3-dione]
